# Test results reported in patent US8703098B2, “Labelled adrenomedullin derivatives and their use for imaging and therapy” (Institut de Cardiologie de Montreal, priority 2004, dated 2014).
# Ends that are not written are not given here.
# Assays:
# [1] = dog, in vivo, iv
# Method: All experimental procedures were performed in accordance with regulations and ethical guidelines from Canadian Council for the Care of Laboratory Animals, and received approval by the animal ethics and research committee of the Montreal Heart Institute. Mongrel dogs weighing between 20-30 kg and presenting negative Dirofilaria imitis blood test results were anesthetized by an initial intravenous dose of pentobarbital sodium (50 mg/kg). Animals were intubated and mechanically ventilated using room air. Cutaneous electrocardiographic leads were installed, and 18F cathlon with three-way was installed on both saphenous vein for 0.9% sodium chloride perfusion, radiolabelled injection and blood collection. A right arterial femoral catheter was also inserted using the Seldinger technique for continuous blood pressure monitoring.
# Purified and buffered ^99mTc-DTPA-hAM1-52 samples were injected in right saphenous vein (n=6). A series of 2 mL blood samples were collected 1 min after the initial AM injection for a 10-min period, then repeated every 5 min for the following 50-min period. […]
# Plasma kinetics of ^99mTc-DTPA-hAM1-52 was fitted using a two-phase exponential decay equation with GraphPad Prism version 4.0 software. Time effects on each organ biodistribution were analyzed by two-way repeated measures ANOVA followed, when a significant interaction was found, by Bonferroni/Dunn t-test. […]
# [2] = Biodistribution and pulmonary retention of 125I-rAM(1-50) in rats after intravenous or intra-arterial injection; type: in vivo, rat; details: drug given 5 min before tracer
# Method: (§1) All experimental procedures were performed in accordance with the regulations and ethical guidelines from Canadian Council for the Care of Laboratory Animals, and received approval by the Animal Ethics and Research Committee of the Montreal Heart Institute. Male Sprague-Dawley rats (Charles River), weighing between 400-450 g, were anaesthetized by an initial intramuscular dose of xylazine (10 mg/kg of body weight) and ketamine (50 mg/kg of body weight), followed by an intra-peritoneal injection of heparin (2000 units; Sigma). Catheters were inserted into the right carotid artery and jugular vein. Heart rate and systemic blood pressure were monitored continuously. […] Venous and arterial blood samples (3 ml) were collected and centrifuged (1875 g, 15 min, 4° C.) and the plasma saved for subsequent measurement of irAM (immunoreactive AM). A similar amount of saline was infused into the animals to prevent hypovolaemia.
# The animals were then killed and the lungs, liver, kidneys (en bloc with the adrenal glands) and heart were removed and gravity drained. […] Results are expressed as a percentage of total radioactivity injected.
# The drugs were given by either intraarterial (n=10 in each group) or intravenous (n=10 in each group) injection 5 min before the ^125I-rAM(1-50) bolus. Plasma samples and tissues were treated as described above.
# (§2) Multiple group comparisons were performed by factorial ANOVA, followed, when a significant interaction was found, by the Bonferroni/Dunn t test. Plasma kinetics of 125I-rAM(1-50) was fitted using a two-phase exponential decay equation with GraphPad Prism (version 4.0) software. […] Comparison between venous and arterial rAM(1-50) levels in plasma was performed with a two-tailed paired Student's t test. In the canine experiments, the effect of drugs on AM extraction was analyzed by two-tailed paired Student's t tests. A P value of <0.05 was considered significant. All results are reported as means ±S.E.M.
# [3] = In vivo single-pass pulmonary clearance of 125I-rAM(1-50) in dogs, single bolus indicator-dilution technique; set-up: species or system dog; details: for mean single-pass pulmonary extraction of 125I-rAM(1-50) after administration of the drug: dogs, drug as intravenous bolus of 100 nmol 5 min before second experiment, mean ±S.E.M.
# Method: Dogs were anaesthetized and prepared as described in detail in reference, which is hereby incorporated by reference. A catheter was inserted into the carotid artery and positioned just above the aortic valve. This catheter was connected to a peristaltic pump for automated blood withdrawal. Another catheter was placed into the jugular vein and positioned in the right ventricular outflow tract to allow bolus injection of the study tracers. A bolus was prepared by adding 3.3 μCi of 125I-rAM(1-50) (2.9 pmol) to 3 ml of Evans-Blue-dye labelled albumin and 0.9% saline to give a final volume of 6 ml. The mixture was separated into three equal parts for the two successive experiments in each animal and to realize dilution-curve standards. A baseline single-bolus indicator-dilution experiment was performed.
# The collected samples were processed and indicator-dilution curves constructed and analyzed as described in previously cited reference 13. Cardiac output and mean tracer AM extraction during the pulmonary transit time were computed from the curves. Mean tracer extraction corresponded to the difference between the areas of the outflow curve of the vascular reference (albumin) and that of the extracted tracer (AM). Recirculation of the tracers apparent in the terminal portion of the curves was removed by linear extrapolation of the semi-logarithmic down slopes.
# as §2
# [4] = Plasma kinetics of 125I-rAM(1-50) after single intravenous injection in rats; type: in vivo, rat; details: drug given 5 min before the 125I-rAM(1-50) bolus
# Method: as §1
# The animals were then killed and the lungs, liver, kidneys (en bloc with the adrenal glands) and heart were removed and gravity drained. […] Results are expressed as a percentage of total radioactivity injected. […]
# Multiple group comparisons were performed by factorial ANOVA, followed, when a significant interaction was found, by the Bonferroni/Dunn t test. […] In the canine experiments, the effect of drugs on AM extraction was analyzed by two-tailed paired Student's t tests. […]
compound,measurement,setting,value
"CC[C@H](C)[C@H](NC(=O)[C@H](CCC(N)=O)NC(=O)[C@H](Cc1c[nH]cn1)NC(=O)[C@H](C)NC(=O)[C@H](CC(C)C)NC(=O)[C@H](CCCCN)NC(=O)[C@H](CCC(N)=O)NC(=O)[C@@H](NC(=O)[C@@H](NC(=O)[C@@H]1CSSC[C@H](NC(=O)CNC(=O)[C@H](Cc2ccccc2)NC(=O)[C@H](CO)NC(=O)[C@H](CCCNC(=N)N)NC(=O)[C@H](CC(C)C)NC(=O)CNC(=O)[C@H](CCC(N)=O)NC(=O)[C@H](Cc2ccccc2)NC(=O)[C@H](CC(N)=O)NC(=O)[C@H](CC(N)=O)NC(=O)[C@H](CCSC)NC(=O)[C@H](CO)NC(=O)[C@H](CCC(N)=O)NC(=O)[C@H](CCCNC(=N)N)NC(=O)[C@H](Cc2ccc(O)cc2)NC(=O)CN(CCN(CCN(CC(=O)O)CC(=O)O)CC(=O)O)CC(=O)O)C(=O)N[C@@H](CCCNC(=N)N)C(=O)N[C@@H](Cc2ccccc2)C(=O)NCC(=O)N[C@@H]([C@@H](C)O)C(=O)N1)[C@@H](C)O)C(C)C)C(=O)N[C@@H](Cc1ccc(O)cc1)C(=O)N[C@@H](CCC(N)=O)C(=O)N[C@@H](Cc1ccccc1)C(=O)N[C@H](C(=O)N[C@@H](CC(=O)O)C(=O)N[C@@H](CCCCN)C(=O)N[C@@H](CC(=O)O)C(=O)N[C@@H](CCCCN)C(=O)N[C@@H](CC(=O)O)C(=O)N[C@@H](CC(N)=O)C(=O)N[C@H](C(=O)N[C@@H](C)C(=O)N1CCC[C@H]1C(=O)N[C@@H](CCCNC(=N)N)C(=O)N[C@@H](CO)C(=O)N[C@@H](CCCCN)C(=O)N[C@H](C(=O)N[C@@H](CO)C(=O)N1CCC[C@H]1C(=O)N[C@@H](CCC(N)=O)C(=O)NCC(=O)N[C@@H](Cc1ccc(O)cc1)C(N)=O)[C@@H](C)CC)C(C)C)[C@@H](C)O [99mTc-DTPA-hAM1-52, metal not drawn]",ratio of rate constant for exchange between the central and peripheral compartments (k1-2/k2-1),[1],24.09
hAM(22-52): C-terminal AM fragment that blocks the specific AM receptor (Bachem),effect of prior administration on 125I-rAM(1-50) activity retained in kidneys,[2],elevated the retained activity
same,effect of prior administration on biodistribution of 125I-rAM(1-50),[2],did not significantly modify this distribution
same,effect of prior administration on pulmonary first-pass retention of 125I-rAM(1-50) (intra-arterial compared with intravenous),[2],not affected
same,mean single-pass pulmonary extraction of 125I-rAM(1-50) after administration of the drug,[3],31.4±3.3%
same,effect of administration prior to radiolabelled rAM(1-50) on its plasma kinetics,[4],did not modify plasma kinetics
"rAM(1-50): unlabelled rat adrenomedullin, amino acids 1-50 (American Peptide) (YRQSMNQGSRSTGCRFGTCTMQKLAHQIYQFTDKDKDGMAPRNKISPQGY; ends and bridges not checked; cysteine pairing not given here)",effect of prior administration on 125I-rAM(1-50) lung activity,[2],important reduction in lung activity
same,"effect of prior administration on amount of 125I-rAM(1-50) retained by the liver, kidneys and heart",[2],significantly increased
same,effect of prior administration on pulmonary first-pass retention of 125I-rAM(1-50) (intra-arterial compared with intravenous),[2],did not decrease further the already lowered pulmonary retention after intra-arterial compared with intravenous injections
same,mean single-pass pulmonary extraction of 125I-rAM(1-50) after administration of the drug,[3],21.9±2.4%
same,"mean extraction of 125I-rAM(1-50) after injection of the drug, typical experiment","[3]; same dog, second experiment (FIG. 4B)",12%
same,effect of administration prior to radiolabelled rAM(1-50) on its plasma kinetics,[4],did not modify plasma kinetics
